{"source": "patent US4639541A", "about": "“Substituted phenylacetic acid iodopropargyl esters, biocidal agents containing same and process for manufacturing same” (priority 1984, dated 1987)", "key": {"Botrytis cinerea [1]": {"tested_on": "Botrytis cinerea", "assay": "Fungicidal activity against Botrytis cinerea in broad beans", "assay_type": "in vivo", "details": "500 ppm spray, broad beans \"Midget\", after 6 days, 20° C., 95% humidity, vs untreated", "protocol": "Broad beans of the \"Midget\" variety were grown to a height of approximately 10 cm. The plants were sprayed until dripping wet with spray liquors containing 500 ppm of active ingredient.\nWhen the spray coating had dried, the plants were inoculated with a spore suspension of Botrytis cinerea. The plants were placed in a climatic cabinet at a constant 20° C. and an atmospheric humidity of 95%.\nAfter 6 days, fungicidal activity was evaluated. The activity was ascertained in comparison with untreated specimens.\nThe degree of activity as a percentage was ascertained in accordance with the following formula [formula] The following were used as active ingredients: I 2-chloro-3,5-dinitrophenylacetic acid iodopropargyl ester"}, "Fusarium culmorum": {"tested_on": "Fusarium culmorum", "assay": "Spore germination test, Fusarium culmorum", "assay_type": "cell-based", "details": "48 hours, 20° C., vs untreated control", "protocol": "(§1) 50 μl of a solution or suspension of an active ingredient according to the invention together with 50 μl of a spore suspension produced by washing spores of an agar culture with a nutrient solution that contained per liter 10 g of sugar, 1 g of glycol, 1 g of KH2 PO4 and 0.5 g of MgSO4 were introduced into the concave-ground portion of concave-ground microscope slides.\n(§2) The microscope slides were stored at 20° C. for 48 hours in a Petri dish, the base of which was covered with a moistened filter paper.\n(§3) Subsequently, the ratio of germinated and non-germinated spores was compared with an untreated control specimen.\n(§4) The degree of activity was calculated as a percentage in accordance with the following formula: [formula]"}, "Alternaria tenuis": {"tested_on": "Alternaria tenuis", "assay": "Spore germination test, Alternaria tenuis", "assay_type": "cell-based", "details": "48 hours, 20° C., vs untreated control", "protocol": "as §1, §2, §3, §4"}, "Penicillium glaucum": {"tested_on": "Penicillium glaucum", "assay": "Spore germination test, Penicillium glaucum", "assay_type": "cell-based", "details": "48 hours, 20° C., vs untreated control", "protocol": "as §1, §2, §3, §4"}, "Fusarium nivale": {"tested_on": "Fusarium nivale", "assay": "Spore germination test, Fusarium nivale", "assay_type": "cell-based", "details": "48 hours, 20° C., vs untreated control", "protocol": "as §1, §2, §3, §4"}, "Verticillium dahliae": {"tested_on": "Verticillium dahliae", "assay": "Spore germination test, Verticillium dahliae", "assay_type": "cell-based", "details": "48 hours, 20° C., vs untreated control", "protocol": "as §1, §2, §3, §4"}, "Botrytis cinerea [2]": {"tested_on": "Botrytis cinerea", "assay": "Spore germination test, Botrytis cinerea", "assay_type": "cell-based", "details": "48 hours, 20° C., vs untreated control", "protocol": "as §1, §2, §3, §4"}, "Colletotrichum coffeanum": {"tested_on": "Colletotrichum coffeanum", "assay": "Spore germination test, Colletotrichum coffeanum", "assay_type": "cell-based", "details": "48 hours, 20° C., vs untreated control", "protocol": "as §1, §2, §3, §4"}}}
{"smiles": "O=C(Cc1cc([N+](=O)[O-])cc([N+](=O)[O-])c1Cl)OCC#CI", "note": "[I]", "values": [{"measurement": "% Activity against Botrytis cinerea in broad beans", "setting": "Botrytis cinerea [1]", "result": 80, "unit": "%"}]}
{"smiles": "O=C(Cc1cc([N+](=O)[O-])c(Cl)c([N+](=O)[O-])c1)OCC#CI", "note": "[H]", "values": [{"measurement": "% Activity against Botrytis cinerea in broad beans", "setting": "Botrytis cinerea [1]", "result": 30, "unit": "%"}, {"measurement": "degree of activity (fungal toxicity with respect to fungal spores)", "setting": "Fusarium culmorum; 2 ppm", "result": 90, "unit": "%"}, {"measurement": "degree of activity (fungal toxicity with respect to fungal spores)", "setting": "Alternaria tenuis; 2 ppm", "result": 100, "unit": "%"}, {"measurement": "degree of activity (fungal toxicity with respect to fungal spores)", "setting": "Penicillium glaucum; 2 ppm", "result": 100, "unit": "%"}, {"measurement": "degree of activity (fungal toxicity with respect to fungal spores)", "setting": "Fusarium nivale; 2 ppm", "result": 90, "unit": "%"}, {"measurement": "degree of activity (fungal toxicity with respect to fungal spores)", "setting": "Verticillium dahliae; 2 ppm", "result": 40, "unit": "%"}, {"measurement": "degree of activity (fungal toxicity with respect to fungal spores)", "setting": "Botrytis cinerea [2]; 2 ppm", "result": 70, "unit": "%"}, {"measurement": "degree of activity (fungal toxicity with respect to fungal spores)", "setting": "Colletotrichum coffeanum; 2 ppm", "result": 100, "unit": "%"}]}
{"smiles": "O=C(Cc1c(Cl)cccc1Cl)OCC#CI", "note": "[C]", "values": [{"measurement": "degree of activity (fungal toxicity with respect to fungal spores)", "setting": "Fusarium culmorum; 1 ppm", "result": 95, "unit": "%"}, {"measurement": "degree of activity (fungal toxicity with respect to fungal spores)", "setting": "Fusarium culmorum; 2 ppm", "result": 95, "unit": "%"}, {"measurement": "degree of activity (fungal toxicity with respect to fungal spores)", "setting": "Fusarium culmorum; 4 ppm", "result": 95, "unit": "%"}, {"measurement": "degree of activity (fungal toxicity with respect to fungal spores)", "setting": "Alternaria tenuis; 1 ppm", "result": 95, "unit": "%"}, {"measurement": "degree of activity (fungal toxicity with respect to fungal spores)", "setting": "Alternaria tenuis; 2 ppm", "result": 95, "unit": "%"}, {"measurement": "degree of activity (fungal toxicity with respect to fungal spores)", "setting": "Alternaria tenuis; 4 ppm", "result": 95, "unit": "%"}, {"measurement": "degree of activity (fungal toxicity with respect to fungal spores)", "setting": "Penicillium glaucum; 1 ppm", "result": 60, "unit": "%"}, {"measurement": "degree of activity (fungal toxicity with respect to fungal spores)", "setting": "Penicillium glaucum; 2 ppm", "result": 90, "unit": "%"}, {"measurement": "degree of activity (fungal toxicity with respect to fungal spores)", "setting": "Penicillium glaucum; 4 ppm", "result": 90, "unit": "%"}, {"measurement": "degree of activity (fungal toxicity with respect to fungal spores)", "setting": "Fusarium nivale; 1 ppm", "result": 100, "unit": "%"}, {"measurement": "degree of activity (fungal toxicity with respect to fungal spores)", "setting": "Fusarium nivale; 2 ppm", "result": 100, "unit": "%"}, {"measurement": "degree of activity (fungal toxicity with respect to fungal spores)", "setting": "Fusarium nivale; 4 ppm", "result": 100, "unit": "%"}, {"measurement": "degree of activity (fungal toxicity with respect to fungal spores)", "setting": "Verticillium dahliae; 1 ppm", "result": 100, "unit": "%"}, {"measurement": "degree of activity (fungal toxicity with respect to fungal spores)", "setting": "Verticillium dahliae; 2 ppm", "result": 100, "unit": "%"}, {"measurement": "degree of activity (fungal toxicity with respect to fungal spores)", "setting": "Verticillium dahliae; 4 ppm", "result": 100, "unit": "%"}, {"measurement": "degree of activity (fungal toxicity with respect to fungal spores)", "setting": "Botrytis cinerea [2]; 1 ppm", "result": 95, "unit": "%"}, {"measurement": "degree of activity (fungal toxicity with respect to fungal spores)", "setting": "Botrytis cinerea [2]; 2 ppm", "result": 95, "unit": "%"}, {"measurement": "degree of activity (fungal toxicity with respect to fungal spores)", "setting": "Botrytis cinerea [2]; 4 ppm", "result": 100, "unit": "%"}, {"measurement": "degree of activity (fungal toxicity with respect to fungal spores)", "setting": "Colletotrichum coffeanum; 1 ppm", "result": 95, "unit": "%"}, {"measurement": "degree of activity (fungal toxicity with respect to fungal spores)", "setting": "Colletotrichum coffeanum; 2 ppm", "result": 95, "unit": "%"}, {"measurement": "degree of activity (fungal toxicity with respect to fungal spores)", "setting": "Colletotrichum coffeanum; 4 ppm", "result": 95, "unit": "%"}]}
{"smiles": "O=C(Cc1cc([N+](=O)[O-])c(Cl)c([N+](=O)[O-])c1Cl)OCC#CI", "note": "[G]", "values": [{"measurement": "degree of activity (fungal toxicity with respect to fungal spores)", "setting": "Fusarium culmorum; 2 ppm", "result": 70, "unit": "%"}, {"measurement": "degree of activity (fungal toxicity with respect to fungal spores)", "setting": "Alternaria tenuis; 2 ppm", "result": 70, "unit": "%"}, {"measurement": "degree of activity (fungal toxicity with respect to fungal spores)", "setting": "Penicillium glaucum; 2 ppm", "result": 70, "unit": "%"}, {"measurement": "degree of activity (fungal toxicity with respect to fungal spores)", "setting": "Fusarium nivale; 2 ppm", "result": 80, "unit": "%"}, {"measurement": "degree of activity (fungal toxicity with respect to fungal spores)", "setting": "Verticillium dahliae; 2 ppm", "result": 70, "unit": "%"}, {"measurement": "degree of activity (fungal toxicity with respect to fungal spores)", "setting": "Botrytis cinerea [2]; 2 ppm", "result": 100, "unit": "%"}, {"measurement": "degree of activity (fungal toxicity with respect to fungal spores)", "setting": "Colletotrichum coffeanum; 2 ppm", "result": 60, "unit": "%"}]}
{"smiles": "O=C(Cc1c(Cl)c([N+](=O)[O-])cc([N+](=O)[O-])c1Cl)OCC#CI", "note": "[K]", "values": [{"measurement": "% Activity against Botrytis cinerea in broad beans", "setting": "Botrytis cinerea [1]", "result": 30, "unit": "%"}]}
{"smiles": "Cc1cc(C)c(CC(=O)OCC#CI)c(C)c1", "note": "[L]", "values": [{"measurement": "% Activity against Botrytis cinerea in broad beans", "setting": "Botrytis cinerea [1]", "result": 20, "unit": "%"}]}
{"smiles": "O=C(Cc1ccccc1)OCC#CI", "note": "[V]", "values": [{"measurement": "% Activity against Botrytis cinerea in broad beans", "setting": "Botrytis cinerea [1]", "result": 0, "unit": "%"}, {"measurement": "inhibition of growth at 1 ppm", "setting": "Fusarium culmorum; Fusarium culmorum, 1 ppm, read-out: degree of activity (fungal toxicity with respect to fungal spores)", "result": 0, "unit": "%"}, {"measurement": "inhibition of growth at 2 ppm", "setting": "Fusarium culmorum; Fusarium culmorum, 2 ppm, read-out: degree of activity (fungal toxicity with respect to fungal spores)", "result": 0, "unit": "%"}, {"measurement": "inhibition of growth at 4 ppm", "setting": "Fusarium culmorum; Fusarium culmorum, 4 ppm, read-out: degree of activity (fungal toxicity with respect to fungal spores)", "result": 40, "unit": "%"}, {"measurement": "inhibition of growth at 1 ppm", "setting": "Alternaria tenuis; Alternaria alternata, 1 ppm, read-out: degree of activity (fungal toxicity with respect to fungal spores)", "result": 80, "unit": "%"}, {"measurement": "inhibition of growth at 2 ppm", "setting": "Alternaria tenuis; Alternaria alternata, 2 ppm, read-out: degree of activity (fungal toxicity with respect to fungal spores)", "result": 90, "unit": "%"}, {"measurement": "inhibition of growth at 4 ppm", "setting": "Alternaria tenuis; Alternaria alternata, 4 ppm, read-out: degree of activity (fungal toxicity with respect to fungal spores)", "result": 100, "unit": "%"}, {"measurement": "inhibition of growth at 1 ppm", "setting": "Penicillium glaucum; Penicillium, 1 ppm, read-out: degree of activity (fungal toxicity with respect to fungal spores)", "result": 0, "unit": "%"}, {"measurement": "inhibition of growth at 2 ppm", "setting": "Penicillium glaucum; Penicillium, 2 ppm, read-out: degree of activity (fungal toxicity with respect to fungal spores)", "result": 0, "unit": "%"}, {"measurement": "inhibition of growth at 4 ppm", "setting": "Penicillium glaucum; Penicillium, 4 ppm, read-out: degree of activity (fungal toxicity with respect to fungal spores)", "result": 40, "unit": "%"}, {"measurement": "inhibition of growth at 1 ppm", "setting": "Fusarium nivale; Microdochium nivale, 1 ppm, read-out: degree of activity (fungal toxicity with respect to fungal spores)", "result": 60, "unit": "%"}, {"measurement": "inhibition of growth at 2 ppm", "setting": "Fusarium nivale; Microdochium nivale, 2 ppm, read-out: degree of activity (fungal toxicity with respect to fungal spores)", "result": 70, "unit": "%"}, {"measurement": "inhibition of growth at 4 ppm", "setting": "Fusarium nivale; Microdochium nivale, 4 ppm, read-out: degree of activity (fungal toxicity with respect to fungal spores)", "result": 90, "unit": "%"}, {"measurement": "inhibition of growth at 1 ppm", "setting": "Verticillium dahliae; Verticillium dahliae, 1 ppm, read-out: degree of activity (fungal toxicity with respect to fungal spores)", "result": 0, "unit": "%"}, {"measurement": "inhibition of growth at 2 ppm", "setting": "Verticillium dahliae; Verticillium dahliae, 2 ppm, read-out: degree of activity (fungal toxicity with respect to fungal spores)", "result": 0, "unit": "%"}, {"measurement": "inhibition of growth at 4 ppm", "setting": "Verticillium dahliae; Verticillium dahliae, 4 ppm, read-out: degree of activity (fungal toxicity with respect to fungal spores)", "result": 30, "unit": "%"}, {"measurement": "inhibition of growth at 1 ppm", "setting": "Botrytis cinerea [2]; Botrytis cinerea, 1 ppm, read-out: degree of activity (fungal toxicity with respect to fungal spores)", "result": 0, "unit": "%"}, {"measurement": "inhibition of growth at 2 ppm", "setting": "Botrytis cinerea [2]; Botrytis cinerea, 2 ppm, read-out: degree of activity (fungal toxicity with respect to fungal spores)", "result": 0, "unit": "%"}, {"measurement": "inhibition of growth at 4 ppm", "setting": "Botrytis cinerea [2]; Botrytis cinerea, 4 ppm, read-out: degree of activity (fungal toxicity with respect to fungal spores)", "result": 50, "unit": "%"}, {"measurement": "inhibition of growth at 1 ppm", "setting": "Colletotrichum coffeanum; Colletotrichum coffeanum, 1 ppm, read-out: degree of activity (fungal toxicity with respect to fungal spores)", "result": 20, "unit": "%"}, {"measurement": "inhibition of growth at 2 ppm", "setting": "Colletotrichum coffeanum; Colletotrichum coffeanum, 2 ppm, read-out: degree of activity (fungal toxicity with respect to fungal spores)", "result": 30, "unit": "%"}, {"measurement": "inhibition of growth at 4 ppm", "setting": "Colletotrichum coffeanum; Colletotrichum coffeanum, 4 ppm, read-out: degree of activity (fungal toxicity with respect to fungal spores)", "result": 80, "unit": "%"}]}
